Source: patent publication US10562912B2 (C&C Research Laboratories, priority 2013, dated 2020)

Experiments:
Type in all cases: cell-based
AGS = assay: Cell growth inhibition assay, stomach cancer cell line AGS; details: Homo sapiens; AGS stomach cancer cell line, 3,000 cells/well
Protocol: The inhibitory effects of the compounds of the present invention against the growth of cancer cells were evaluated as shown below. The cancer cell lines including stomach cancer cell line (AGS), breast cancer cell lines (MDA-MB-231, MDA-MB-468, and BT-549), prostate cancer cell lines (LNCaP and DU-145), colon cancer cell line (HCT116), ovarian cancer cell line (SW626), liver cancer cell line (Hep3B), kidney cancer cell line (ACHN), lung cancer cell line (NCI-H23) and blood cancer cell lines (HEL92.1.7 and U266) were cultured under the protocol provided by each supplier. A medium supplemented with 10 ng/mL of IL-6 was used for LNCaP, a prostate cancer cell line, when treated with a drug. Each type of cells to be used in experiments were sub-cultured in a 96-well plate by counting the exact number of cells using Tali™ Image-based Cytometer (Life Technologies). In a 96-well plate, AGS, HCT116, and DU-145 were employed with 3,000 cells/well; NCI-H23, SW626, Hep3B, ACHN, BT-549, MDA-MB-231, HEL92.1.7, and U266 were employed with 5,000 cells/well; and LNCaP and MDA-MB-468 were employed with 10,000 cells/well. The cells were treated with the compounds listed in Examples which were diluted in various concentrations. Upon completion of the compounds treatment, AGS, HCT116, SW626, DU145, NCI-H23, Hep3B, ACHN, BT-549, LNCaP, HEL92.1.7, and U266 cells were cultured at 37° C. under 5% CO2 for from 72 to 96 hours, and MDA-MB-231 and MDA-MB-468 cells were cultured at 37° C. in air for from 72 to 96 hours. Subsequently, the cells were observed under microscope and drug precipitation and particular findings were investigated and recorded. And then, the 96-well plate was placed at room temperature for 30 minutes, added with 20 μL/well of CellTiter-Glo solution (Cat No. G7573, Promega) and shaken for 10 minutes, followed by being subjected to the measurement using PHERAstar™ microplate reader (BMG LABTECH) according to the supplier's general luminometer protocol. Wells where only culture liquid added without cell plating were used as a negative control, whereas wells where culture liquid containing 0.1% DMSO instead of the compounds listed in Examples were used as a positive control.

LNCaP = assay: Cell growth inhibition assay, prostate cancer cell line LNCaP (medium with 10 ng/mL IL-6); details: Homo sapiens, medium supplemented with 10 ng/mL of IL-6, 10,000 cells/well
STAT3 = molecular target: T1, STAT3 (Homo sapiens, UniProt P40763); assay: STAT3 reporter gene assay (luciferase), LNCaP stable cell line (pSTAT3-TA-luc), IL-6 stimulation
T1 construct: plasmid pSTAT3-TA-luc), which contains a stably operating STAT3 promoter; endogenous in cells
In short: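 LNCaP cells stably carrying pSTAT3-TA-luc, in RPMI1640 with 3% DCC-FBS, were treated with compound and then stimulated with 10 ng/mL IL-6 for 24–48 h at 37 °C. Luciferase activity was measured in lysates. A parallel plate measured viability by CellTiter-Glo, with stimulated 0.1% DMSO wells as the positive control.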

T1 sequence (P40763 whole entry): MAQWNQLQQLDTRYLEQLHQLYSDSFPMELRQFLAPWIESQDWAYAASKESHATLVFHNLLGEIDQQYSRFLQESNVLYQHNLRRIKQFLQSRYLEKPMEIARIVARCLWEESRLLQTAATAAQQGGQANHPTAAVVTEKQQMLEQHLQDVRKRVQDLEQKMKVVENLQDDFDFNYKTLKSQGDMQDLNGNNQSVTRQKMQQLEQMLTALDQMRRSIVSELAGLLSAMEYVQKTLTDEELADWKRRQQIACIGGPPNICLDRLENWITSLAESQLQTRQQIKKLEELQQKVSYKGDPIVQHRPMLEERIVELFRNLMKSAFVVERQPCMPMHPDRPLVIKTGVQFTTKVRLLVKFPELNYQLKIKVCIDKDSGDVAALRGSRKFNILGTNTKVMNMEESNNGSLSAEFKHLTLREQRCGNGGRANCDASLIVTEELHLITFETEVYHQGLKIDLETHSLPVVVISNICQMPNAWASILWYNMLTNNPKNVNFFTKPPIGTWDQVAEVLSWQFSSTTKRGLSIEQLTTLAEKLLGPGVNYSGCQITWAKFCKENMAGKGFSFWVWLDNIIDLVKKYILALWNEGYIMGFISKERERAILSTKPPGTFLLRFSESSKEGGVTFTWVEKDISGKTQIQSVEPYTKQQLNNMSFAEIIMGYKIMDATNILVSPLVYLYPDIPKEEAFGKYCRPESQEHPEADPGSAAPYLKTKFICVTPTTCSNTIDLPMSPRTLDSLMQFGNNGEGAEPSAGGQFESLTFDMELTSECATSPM

Row | Compound | IC50 (AGS) [µM] | IC50 (LNCaP) [µM] | IC50 (STAT3) [µM]
1 | COC(=O)c1ccc(C(F)(F)F)c(-c2cccc(NC(=O)c3cc4ccc([N+](=O)[O-])cc4[nH]3)c2)c1 [Example 286, methyl 3′-(6-nitro-1H-indole-2-carboxamido)-6-(trifluoromethyl)-[1,1′-biphenyl]-3-carboxylate] | 10.2 | > 10 | > 10
2 | O=C(Nc1cccc(-c2ccc(F)cc2F)c1)C1Cc2ccc([N+](=O)[O-])cc2N1 (stereo not drawn) [Example 231, N-(2′,4′-difluoro-[1,1′-biphenyl]-3-yl)-6-nitroindoline-2-carboxamide] | 19.3 | > 10 | 2.9
3 | CS(=O)(=O)Nc1ccc2cc(C(=O)Nc3cccc(S(=O)(=O)c4cccc(C#N)n4)c3)[nH]c2c1 [Example 406, N-(3-((6-cyanopyridin-2-yl)sulfonyl)phenyl)-6-(methylsulfonamido)-1H-indole-2-carboxamide] | 17.6 | > 10 | > 10
4 | CCOC(=O)COc1ccc2cc(C(=O)Nc3cccc(-c4ccc(F)cc4F)c3)[nH]c2c1 [Example 255, ethyl 2-((2-((2′,4′-difluoro-[1,1′-biphenyl]-3-yl)carbamoyl)-1H-indol-6-yl)oxy)acetate] | 18.1 | > 10 | > 10
5 | O=C(Nc1cccc(-c2ccccc2C(F)(F)F)c1)c1nc2ccc([N+](=O)[O-])cc2s1 [Example 232, 6-nitro-N-(2′-(trifluoromethyl)-[1,1′-biphenyl]-3-yl)benzo[d]thiazole-2-carboxamide] | 20.5 | > 10 | > 10
6 | CS(=O)(=O)Nc1ccc2cc(C(=O)Nc3cc(-c4cc(C(N)=O)ccc4Cl)ccn3)[nH]c2c1 [Example 381, N-(4-(5-carbamoyl-2-chlorophenyl)pyridin-2-yl)-6-(methylsulfonamido)-1H-indole-2-carboxamide] | > 50 | > 10 | > 10
7 | COC(=O)c1ccc(Cl)c(-c2cccc(NC(=O)c3cc4ccc([N+](=O)[O-])cc4[nH]3)c2)c1 [Example 298, methyl 6-chloro-3′-(6-nitro-1H-indole-2-carboxamido)-[1,1′-biphenyl]-3-carboxylate] | 31.7 | > 10 | > 10
8 | Cc1nc2ccc(S(=O)(=O)c3cccc(NC(=O)c4cc5ccc(NS(C)(=O)=O)cc5[nH]4)c3)cc2s1 [Example 410, N-(3-((2-methylbenzo[d]thiazol-6-yl)sulfonyl)phenyl)-6-(methylsulfonamido)-1H-indole-2-carboxamide] | 31.3 | > 10 | 3.1
9 | CN(C)S(=O)(=O)Nc1ccc2cc(C(=O)Nc3cccc(-c4ccc(F)cc4F)c3)[nH]c2c1 [Example 276, N-(2′,4′-difluoro-[1,1′-biphenyl]-3-yl)-6-((N,N-dimethylsulfamoyl)amino)-1H-indole-2-carboxamide] | 11.9 | 1.3 | 3.1
10 | COC(=O)c1ccc(C(F)(F)F)c(-c2cccc(NC(=O)c3cc4ccc(NS(C)(=O)=O)cc4[nH]3)c2)c1 [Example 287, methyl 3′-(6-(methylsulfonamido)-1H-indole-2-carboxamido)-6-(trifluoromethyl)-[1,1′-biphenyl]-3-carboxylate] | 23.6 | > 10 | > 10
11 | O=C(Nc1cc(-c2ccc(F)cc2F)ccn1)c1cc2ccc(NS(=O)(=O)C3CC3)cc2[nH]1 [Example 278, 6-(cyclopropanesulfonamido)-N-(4-(2,4-difluorophenyl)pyridin-2-yl)-1H-indole-2-carboxamide] | 20 | 5.9 | 4.5
12 | COc1cc(C(F)(F)F)c(-c2cccc(NC(=O)c3cc4ccc(NS(C)(=O)=O)cc4[nH]3)c2)cc1C(N)=O [Example 377, N-(5′-carbamoyl-4′-methoxy-2′-(trifluoromethyl)-[1,1′-biphenyl]-3-yl)-6-(methylsulfonamido)-1H-indole-2-carboxamide] | 15.2 | > 10 | > 10
13 | COC(=O)c1cc(-c2cccc(NC(=O)c3cc4ccc(NS(C)(=O)=O)cc4[nH]3)c2)c(C(F)(F)F)cc1OC [Example 289, methyl 4-methoxy-3′-(6-(methylsulfonamido)-1H-indole-2-carboxamido)-6-(trifluoromethyl)-[1,1′-biphenyl]-3-carboxylate] | 32 | > 10 | > 10
14 | COC(=O)c1cc(-c2cccc(NC(=O)c3cc4ccc([N+](=O)[O-])cc4[nH]3)c2)c(C(F)(F)F)cc1OC [Example 288, methyl 4-methoxy-3′-(6-nitro-1H-indole-2-carboxamido)-6-(trifluoromethyl)-[1,1′-biphenyl]-3-carboxylate] | > 50 | > 10 | > 10
15 | COc1ccc(S(=O)(=O)c2cccc(NC(=O)c3cc4ccc(NS(C)(=O)=O)cc4[nH]3)c2)cc1 [Example 394, N-(3-((4-methoxyphenyl)sulfonyl)phenyl)-6-(methylsulfonamido)-1H-indole-2-carboxamide] | 20 | > 10 | 3.3
16 | CN(C(=O)c1cc2ccc(NS(C)(=O)=O)cc2[nH]1)c1cccc(-c2ccc(F)cc2F)c1 [Example 280, N-(2′,4′-difluoro-[1,1′-biphenyl]-3-yl)-N-methyl-6-(methylsulfonamido)-1H-indole-2-carboxamide] | 2.7 | 2.7 | 1.7
17 | NS(=O)(=O)Nc1ccc2cc(C(=O)Nc3cccc(-c4ccc(F)cc4F)c3)[nH]c2c1 [Example 274, N-(2′,4′-difluoro-[1,1′-biphenyl]-3-yl)-6-(sulfamoylamino)-1H-indole-2-carboxamide] | 17.9 | > 10 | > 10
18 | Cn1c(C(=O)Nc2cccc(-c3ccccc3C(F)(F)F)c2)cc2ccc(NS(C)(=O)=O)cc21 [Example 253, 1-methyl-6-(methylsulfonamido)-N-(2′-(trifluoromethyl)-[1,1′-biphenyl]-3-yl)-1H-indole-2-carboxamide] | 7.6 | 8.5 | 4.7
19 | O=C(Nc1cccc(-c2ccccc2C(F)(F)F)c1)c1cc2ccc(NS(=O)(=O)CC(F)(F)F)cc2[nH]1 [Example 264, 6-(2,2,2-trifluoroethylsulfonamido)-N-(2′-(trifluoromethyl)-[1,1′-biphenyl]-3-yl)-1H-indole-2-carboxamide] | 13 | 6.2 | 1.9
20 | CN(c1ccc2cc(C(=O)Nc3cccc(-c4ccc(F)cc4F)c3)n(C)c2c1)S(C)(=O)=O [Example 345, N-(2′,4′-difluoro-[1,1′-biphenyl]-3-yl)-1-methyl-6-(N-methylmethylsulfonamido)-1H-indole-2-carboxamide] | 6.9 | 3.5 | 1.6
21 | CS(=O)(=O)Nc1ccc2cc(C(=O)Nc3cccc(S(=O)(=O)c4ccc5sccc5c4)c3)[nH]c2c1 [Example 409, N-(3-(benzo[b]thiophen-5-ylsulfonyl)phenyl)-6-(methylsulfonamido)-1H-indole-2-carboxamide] | 17.3 | > 10 | 2.9
22 | CS(=O)(=O)Nc1ccc2cc(C(=O)Nc3cccc(-c4cnccc4C(F)(F)F)c3)[nH]c2c1 [Example 291, 6-(methylsulfonamido)-N-(3-(4-(trifluoromethyl)pyridin-3-yl)phenyl)-1H-indole-2-carboxamide] | 13.9 | 8.1 | 3.2
23 | CS(=O)(=O)Nc1ccc2cc(C(=O)Nc3cccc(-c4cc(C(N)=O)c(O)cc4C(F)(F)F)c3)[nH]c2c1 [Example 378, N-(5′-carbamoyl-4′-hydroxy-2′-(trifluoromethyl)-[1,1′-biphenyl]-3-yl)-6-(methylsulfonamido)-1H-indole-2-carboxamide] | 39.9 | > 10 | > 10
24 | Nc1ccc2[nH]c(C(=O)Nc3cccc(-c4ccccc4C(F)(F)F)c3)cc2c1 [Example 258, 5-amino-N-(2′-(trifluoromethyl)-[1,1′-biphenyl]-3-yl)-1H-indole-2-carboxamide] | 16.3 | 5.2 | 2.7
